Measurements: ChEMBL document CHEMBL4610010, “Metachromins X and Y from a marine sponge Spongia sp. and their effects on cell cycle progression” (Bioorg Med Chem, 2020)
Counter-ions that a name gives are not always drawn. Calls of active or inactive are those of the source. The rule behind the calls is not given here.

Assays:
[1] = tested on: HeLa/Fucci2; assay: Antiproliferative activity against human HeLa/Fucci2 cells assessed as inhibition of cell viability incubated for 3 days by MTT assay; assay type: functional, cell-based; settings: HeLa/Fucci2, 72 h
[2] = tested on: HeLa/Fucci2; assay: Induction of cell cycle arrest in human HeLa/Fucci2 cells assessed as accumulation at S/G2/M phase at 56 uM measured after 68 hrs by Time-lapse imaging analysis based fluorescent microscopic method; assay type: functional
[3] = tested on: HeLa/Fucci2; assay: Induction of cell cycle arrest in human HeLa/Fucci2 cells assessed as accumulation at S/G2/M phase at 56 uM incubated for 3 days by flow cytometric analysis (reference value: 20.4%); assay type: functional
[4] = tested on: HeLa/Fucci2; assay: Induction of cell cycle arrest in human HeLa/Fucci2 cells assessed as accumulation at G1 phase at 56 uM incubated for 3 days by flow cytometric analysis (reference value: 39.4%); assay type: functional
[5] = tested on: HeLa/Fucci2; assay: Induction of cell cycle arrest in human HeLa/Fucci2 cells assessed as accumulation at G1/S phase at 56 uM incubated for 3 days by flow cytometric analysis (reference value: 40.2%); assay type: functional

Structure (SMILES) | IC50 [1] [µM] | Activity [2] | Activity [3] [%] | Activity [4] [%] | Activity [5] [%]
COC1=CC(=O)C(O)=C(C/C=C(\C)CC[C@@]2(C)CCC=C(C)[C@H]2C)C1=O [METACHROMIN C] | 53 | Active | – | – | –
COc1cc(OC)c2c(c1O)C=C[C@](C)(CC[C@@]1(C)CCC=C(C)[C@H]1C)O2 | 89 | inactive | – | – | –
COC1=CC(=O)C(O)=C(C/C=C(\C)CCC2=C(C)CCCC2(C)C)C1=O | 64 | Active | 88 | 7.6 | 4.3
COC1=CC(=O)C2=C(C=CC(C)(CC[C@@]3(C)CCC=C(C)[C@H]3C)O2)C1=O (some centres not stated) | 73 | inactive | – | – | –
COc1cccc2c1C(=O)c1c(O)c3c(c(O)c1C2=O)C[C@@](O)(C(=O)CO)C[C@@H]3O[C@H]1C[C@H](N)[C@H](O)[C@H](C)O1 [DOXORUBICIN HYDROCHLORIDE] | 2 | – | – | – | –
COC1=CC(=O)C2=C(C=CC(C)(CCC3=C(C)CCCC3(C)C)O2)C1=O (racemic) | 76 | inactive | 55 | 21.5 | 23.4
